According to US10160762B2, “6-alkyl dihydropyrazolopyrimidinone compounds as PDE2 inhibitors” (Merck Sharp & Dohme Corp., priority 2015, dated 2018):

Target: T1, human PDE2A1 (Homo sapiens, UniProt O00408)
T1 construct: GST; purchased BPS Bioscience (San Diego, Calif.) 60020; host or cells: insect cells
Test: IMAP FP PDE assay, human PDE2A1
Format: biochemical
Conditions: Lab B; read-out: Human PDE2 Ki (nM) Lab B
Summary of the method: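 GST-tagged human PDE2A1 from insect cells; substrate 50 nM FAM-cAMP containing 1000 nM cGMP in Tris pH 7.2/MgCl2/DTT buffer, enzyme giving 20% conversion. 60 min at room temperature, IMAP binding reagent, fluorescence polarization read. Apparent Ki from FP readings using apparent KM 10,000 nM; ten-point 3-fold titrations.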

T1 sequence (O00408 1-920 isoform O00408-2): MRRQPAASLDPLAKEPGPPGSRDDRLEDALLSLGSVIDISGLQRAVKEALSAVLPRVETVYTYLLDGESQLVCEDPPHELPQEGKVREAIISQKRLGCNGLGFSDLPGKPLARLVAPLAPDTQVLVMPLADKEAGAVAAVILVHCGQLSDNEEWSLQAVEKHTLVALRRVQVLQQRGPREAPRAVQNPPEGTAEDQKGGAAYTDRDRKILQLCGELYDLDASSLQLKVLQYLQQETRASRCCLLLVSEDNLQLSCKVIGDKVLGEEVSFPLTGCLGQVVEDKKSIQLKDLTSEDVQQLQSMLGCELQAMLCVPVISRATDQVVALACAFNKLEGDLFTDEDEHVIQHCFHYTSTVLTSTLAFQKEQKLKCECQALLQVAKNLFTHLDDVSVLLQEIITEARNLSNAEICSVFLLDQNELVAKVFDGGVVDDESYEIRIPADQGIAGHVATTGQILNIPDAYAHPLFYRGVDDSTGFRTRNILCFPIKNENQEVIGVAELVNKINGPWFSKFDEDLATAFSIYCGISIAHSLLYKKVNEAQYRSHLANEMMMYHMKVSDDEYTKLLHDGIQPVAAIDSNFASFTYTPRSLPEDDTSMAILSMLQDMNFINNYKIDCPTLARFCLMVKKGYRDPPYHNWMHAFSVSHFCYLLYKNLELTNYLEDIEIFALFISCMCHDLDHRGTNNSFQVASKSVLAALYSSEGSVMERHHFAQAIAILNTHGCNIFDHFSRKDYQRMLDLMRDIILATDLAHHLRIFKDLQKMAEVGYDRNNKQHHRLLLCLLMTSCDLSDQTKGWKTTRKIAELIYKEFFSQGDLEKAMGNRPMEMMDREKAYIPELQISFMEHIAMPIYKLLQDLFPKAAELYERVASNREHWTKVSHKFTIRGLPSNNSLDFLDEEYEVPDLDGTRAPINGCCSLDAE

SMILES | Ki
COCc1nn(C(C)c2ccc(C(F)(F)F)cc2)c2nc(C)[nH]c(=O)c12 (single isomer, unassigned) [Example 279] | 17 nM
Cc1nc2c(c(CC#N)nn2C(C)c2ccc(C(F)(F)F)cc2)c(=O)[nH]1 (single isomer, unassigned) [Example 280] | 77 nM
CC(c1ccc(C(F)(F)F)cc1)n1nc(CO)c2c(=O)[nH]c(C(F)F)nc21 (stereo not drawn) [Example 284, 6-(Difluoromethyl)-3-(hydroxymethyl)-1-(1-(4-(trifluoromethyl)phenyl)ethyl)-1H-pyrazolo[3,4-d]pyrimidin-4(5H)-one] | 64 nM
Cc1nc2c(c(/C=N\O)nn2C(C)c2ccc(C(F)(F)F)cc2)c(=O)[nH]1 (stereo not drawn) [Example 251, (Z)-6-Methyl-4-oxo-1-(1-(4-(trifluoromethyl)phenyl)ethyl)-4,5-dihydro-1H-pyrazolo[3,4-d]pyrimidine-3-carbaldehyde oxime] | 7.2 nM
Cc1nc2c(c(CO)nn2C(c2ccc(C(F)(F)F)cc2)C(C)(C)C)c(=O)[nH]1 (single isomer, unassigned) [Example 83, (S)- or (R)-1-(2,2-Dimethyl-1-(4-(trifluoromethyl)phenyl)-propyl)-3-(hydroxymethyl)-6-methyl-1H-pyrazolo[3,4-d]pyrimidin-4(5H)-one] | 7.6 nM
Cc1nc2c(c(CO)nn2C(c2ccc(C(C)(C)C)cc2)C2CC2)c(=O)[nH]1 (single isomer, unassigned) [Example 88, (R)- or (S)-1-((4-tert-Butylphenyl)(cyclopropyl)methyl)-3-(hydroxymethyl)-6-methyl-1H-pyrazolo[3,4-d]pyrimidin-4(5H)-one] | 45 nM
Cc1nc2c(c(C=O)nn2C(C)c2ccc(C(F)(F)F)cc2)c(=O)[nH]1 (stereo not drawn) [Example 248, 6-Methyl-4-oxo-1-(1-(4-(trifluoromethyl)phenyl)ethyl)-4,5-dihydro-1H-pyrazolo[3,4-d]pyrimidine-3-carbaldehyde] | 66 nM
Cc1nc2c(c(CO)nn2C2(c3ccc(C(F)(F)F)cc3)CCC2)c(=O)[nH]1 [Example 78, 3-(Hydroxymethyl)-6-methyl-1-(1-(4-(trifluoromethyl)phenyl)cyclobutyl)-1H-pyrazolo[3,4-d]pyrimidin-4(5H)-one] | 4.9 nM
Cc1nc2c(c(CO)nn2C(c2ccc(C(F)(F)F)c(F)c2)C2CC2)c(=O)[nH]1 (single isomer, unassigned) [Example 90, (R)- or (S)-1-(Cyclopropyl(3-fluoro-4-(trifluoromethyl)phenyl)methyl)-3-(hydroxymethyl)-6-methyl-1H-pyrazolo[3,4-d]pyrimidin-4(5H)-one] | 78 nM
Cc1nc2c(c(CC(F)(F)F)nn2C(c2ccc(C(F)(F)F)cc2)C(C)(C)C)c(=O)[nH]1 (single isomer, unassigned) [Example 57, (S)- or (R)-1-(2,2-Dimethyl-1-(4-(trifluoromethyl)phenyl)propyl)-6-methyl-3-(2,2,2-trifluoroethyl)-1H-pyrazolo[3,4-d]pyrimidin-4(5H)-one] | 62 nM
Cc1nc2c(c(C#N)nn2C(C)c2ccc(C(F)(F)F)cc2)c(=O)[nH]1 (single isomer, unassigned) [Example 252] | 16 nM

Molecules with a lower Ki, results first:

Ki | SMILES
3.3 nM | Cc1nc2c(c(CO)nn2C(c2ccc(C(F)(F)F)c(F)c2)C(C)C)c(=O)[nH]1 (single isomer, unassigned) [Example 87, (S)- or (R)-1-(1-(3-Fluoro-4-(trifluoromethyl)phenyl)-2-methylpropyl)-3-(hydroxymethyl)-6-methyl-1H-pyrazolo[3,4-d]pyrimidin-4(5H)-one]
3.5 nM | Cc1nc2c(c(CO)nn2C(C)c2ccc(OC(F)F)cc2)c(=O)[nH]1 (single isomer, unassigned) [Example 21, (S)- or (R)-1-(1-(4-(Difluoromethoxy)phenyl)ethyl)-3-(hydroxymethyl)-6-methyl-1H-pyrazolo[3,4-d]pyrimidin-4(5H)-one]
0.48 nM | Cc1nc2c(c(CF)nn2C(c2ccc(OC(F)(F)F)cc2)C2CC2)c(=O)[nH]1 (single isomer, unassigned) [Example 224, (R)- or (S)-1-(Cyclopropyl(4-(trifluoromethoxy)phenyl)methyl)-3-(fluoromethyl)-6-methyl-1,5-dihydro-4H-pyrazolo[3,4-d]pyrimidin-4-one]
1.1 nM | Cc1nc2c(c(CO)nn2C(c2ccc(C(F)(F)F)c(F)c2)C2CC2)c(=O)[nH]1 (single isomer, unassigned) [Example 91, (S)- or (R)-1-(Cyclopropyl(3-fluoro-4-(trifluoromethyl)phenyl)methyl)-3-(hydroxymethyl)-6-methyl-1H-pyrazolo[3,4-d]pyrimidin-4(5H)-one]
1.3 nM | COc1cccc(Cc2nc3c(c(CF)nn3C(C)c3ccc(C(F)(F)F)cc3)c(=O)[nH]2)c1 (single isomer, unassigned) [Example 221, (S)- or (R)-3-(Fluoromethyl)-6-(3-methoxybenzyl)-1-(1-(4-(trifluoromethyl)phenyl)ethyl)-1H-pyrazolo[3,4-d]pyrimidin-4(5H)-one]
0.96 nM | COc1ccc(Cc2nc3c(c(CF)nn3C(C)c3ccc(C(F)(F)F)cc3)c(=O)[nH]2)cc1 (single isomer, unassigned) [Example 219, (S)- or (R)-3-(Fluoromethyl)-6-(4-methoxybenzyl)-1-(1-(4-(trifluoromethyl)phenyl)ethyl)-1H-pyrazolo[3,4-d]pyrimidin-4(5H)-one]
2.1 nM | Cc1nc2c(c(CO)nn2C(C)c2ccc(C(F)(F)F)cc2F)c(=O)[nH]1 (single isomer, unassigned) [Example 17, (S)- or (R)-1-(1-(2-Fluoro-4-(trifluoromethyl)phenyl)ethyl)-3-(hydroxymethyl)-6-methyl-1H-pyrazolo[3,4-d]pyrimidin-4(5H)-one]
3.5 nM | COCc1nc2c(c(CO)nn2C(C)c2ccc(C(F)(F)F)cc2)c(=O)[nH]1 (single isomer, unassigned) [Example 293]
2 nM | Cc1nc2c(c(CC#N)nn2C(C)c2ccc(C(F)(F)F)cc2)c(=O)[nH]1 (single isomer, unassigned) [Example 281]
0.42 nM | Cc1nc2c(c(CF)nn2C(c2ccc(OC(F)(F)F)c(F)c2)C2CC2)c(=O)[nH]1 (single isomer, unassigned) [Example 228, (R)- or (S)-1-(Cyclopropyl(3-fluoro-4-(trifluoromethoxy)phenyl)methyl)-3-(fluoromethyl)-6-methyl-1,5-dihydro-4H-pyrazolo[3,4-d]pyrimidin-4-one]
1.7 nM | Cc1nc2c(c(CO)nn2C(c2ccc(OC(F)(F)F)c(F)c2)C2CC2)c(=O)[nH]1 (single isomer, unassigned) [Example 93, (S)- or (R)-1-(Cyclopropyl(3-fluoro-4-(trifluoromethoxy)phenyl)methyl)-3-(hydroxymethyl)-6-methyl-1H-pyrazolo[3,4-d]pyrimidin-4(5H)-one]
3.3 nM | Cc1nc2c(c(CO)nn2C(C)c2ccc(S(F)(F)(F)(F)F)cc2)c(=O)[nH]1 (single isomer, unassigned) [Example 77]
1.1 nM | Cc1nc2c(c(CO)nn2C(C)c2ccc(SC(F)(F)F)cc2)c(=O)[nH]1 (single isomer, unassigned) [Example 23, (S)- or (R)-3-(Hydroxymethyl)-6-methyl-1-(1-(4-(trifluoromethylthio)phenyl)ethyl)-1H-pyrazolo[3,4-d]pyrimidin-4(5H)-one]
